Converted amounts (≈) assume the structure as drawn.
Key:
Format in all cases: cell-based
Pseudomonas aeruginosa [1] = experiment: MIC with/without sub-MIC colistin, Pseudomonas aeruginosa
Description: (§1) The MIC of the rhodanines and control antibiotics, in the presence of a sub-inhibitory concentration of colistin or polymixin B nonapeptide (PMBN), against Gram-negative bacteria was evaluated as described before. The antibacterial activity of the rhodanines was further investigated against E. coli SM1411Δ acrAB, a strain that is deficient in the multidrug-resistant AcrAB efflux pump, as described before.

Escherichia coli O157:H7 [2] = experiment: MIC with/without sub-MIC colistin, Escherichia coli O157:H7
Description: as §1

Escherichia coli O157:H7 [3] = experiment: MIC with/without PMBN, Escherichia coli O157:H7
Description: as §1

Klebsiella pneumoniae [4] = experiment: MIC with/without sub-MIC colistin, Klebsiella pneumoniae
Description: as §1

Acinetobacter baumannii [5] = experiment: MIC with/without sub-MIC colistin, Acinetobacter baumannii
Description: as §1

Klebsiella pneumoniae [6] = experiment: MIC with/without PMBN, Klebsiella pneumoniae
Description: as §1

Acinetobacter baumannii [7] = experiment: MIC with/without PMBN, Acinetobacter baumannii
Description: as §1

Escherichia coli Δ acrAB = experiment: MIC against E. coli 1411 and AcrAB efflux pump deficient E. coli SM1411Δ acrAB
Description: as §1

Salmonella Typhimurium [8] = experiment: MIC with/without PMBN, Salmonella Typhimurium
Description: as §1

Salmonella Typhimurium [9] = experiment: MIC with/without sub-MIC colistin, Salmonella Typhimurium
Description: as §1

Pseudomonas aeruginosa [10] = experiment: MIC with/without PMBN, Pseudomonas aeruginosa
Description: as §1

Mycobacterium smegmatis = experiment: Broth microdilution MIC/MBC, Mycobacterium smegmatis; settings: Mycolicibacterium smegmatis, ATCC14468, M. Smegmatis ATCC 14468
[11] = Acinetobacter baumannii, ATCCBAA747
[12] = Acinetobacter baumannii, ATCCBAA19606
[13] = Salmonella enterica, ATCC 700720 / TYPHIMURIUM

With CC(=O)O[C@H]1C[C@@]2(C)[C@@H](C[C@@H](O)[C@H]3[C@@]4(C)CC[C@@H](O)[C@@H](C)[C@@H]4CC[C@@]32C)/C1=C(\CCC=C(C)C)C(=O)O [Fusidic acid, fusidic acid, reference compound] the MIC (Pseudomonas aeruginosa [1]; Pseudomonas aeruginosa ATCC 921, colistin (+) […], read-out: MIC) was >64 µM, the MIC (Pseudomonas aeruginosa [1]; Pseudomonas aeruginosa, ATCC921) was > 128 µM and the MIC (Escherichia coli O157:H7 [2]; Escherichia coli O157:H7 ATCC 35150, colistin (+) […], read-out: MIC) was ≤0.5 µM. For the same compound, the MIC (Escherichia coli O157:H7 [2]; Escherichia coli O157:H7 ATCC 700728, colistin (+) […], read-out: MIC) was ≤0.5 µM, the MIC (Escherichia coli O157:H7 [2]; Escherichia coli, ATCC35150) was > 128 µM and the MIC (Escherichia coli O157:H7 [2]; Escherichia coli, ATCC700728) was > 128 µM. For the same compound, the MIC (Escherichia coli O157:H7 [3]; Escherichia coli O157:H7 ATCC 35150, PMBN (+) 4 μg/mL, read-out: MIC) was 4 µM (≈ 2.07 µg/mL), the MIC (Escherichia coli O157:H7 [3]; Escherichia coli O157:H7 ATCC 700728, PMBN (+) 4 μg/mL, read-out: MIC) was 32 µM (≈ 16.5 µg/mL) and the MIC (Escherichia coli O157:H7 [3]; Escherichia coli, ATCC35150) was > 256 µM. For the same compound, the MIC (Escherichia coli O157:H7 [3]; Escherichia coli, ATCC700728) was > 128 µM, the MIC (Klebsiella pneumoniae [4]; Klebsiella pneumoniae ATCC BAA 2146, colistin (+) […]) was >64 µM and the MIC (Klebsiella pneumoniae [4]; Klebsiella pneumoniae, BAA2146) was > 128 µM. The MIC (Acinetobacter baumannii [5]; Acinetobacter baumannii ATCC BAA747, colistin (+) […], read-out: MIC) was 1 µM (≈ 0.517 µg/mL), the MIC (Acinetobacter baumannii [5]; Acinetobacter baumannii ATCC BAA19606, colistin (+) […], read-out: MIC) was ≤0.5 µM and the MIC (Acinetobacter baumannii [5]; [11]) was > 128 µM. The MIC (Acinetobacter baumannii [5]; [12]) was 128 µM (≈ 66.1 µg/mL), the MIC (Klebsiella pneumoniae [6]; Klebsiella pneumoniae ATCC BAA 1706, PMBN (+) 4 μg/mL) was 16 µM (≈ 8.27 µg/mL) and the MIC (Klebsiella pneumoniae [6]; Klebsiella pneumoniae ATCC BAA 2146, PMBN (+) 4 μg/mL) was >64 µM. The MIC (Klebsiella pneumoniae [6]; Klebsiella pneumoniae, BAA1706) was > 128 µM, the MIC (Klebsiella pneumoniae [6]; Klebsiella pneumoniae, BAA2146) was > 128 µM and the MIC (Acinetobacter baumannii [7]; Acinetobacter baumannii ATCC BAA747, PMBN (+) 4 μg/mL, read-out: MIC) was 2 µM (≈ 1.03 µg/mL). For the same compound, the MIC (Acinetobacter baumannii [7]; Acinetobacter baumannii ATCC BAA19606, PMBN (+) 4 μg/mL, read-out: MIC) was 2 µM (≈ 1.03 µg/mL), the MIC (Acinetobacter baumannii [7]; [11]) was > 128 µM and the MIC (Acinetobacter baumannii [7]; [12]) was 128 µM (≈ 66.1 µg/mL). The MIC (Escherichia coli Δ acrAB; E.coli 1411) was > 64 µM, the MIC (Escherichia coli Δ acrAB; E.coli 1411 SM (Δ acrAB, AcrAB efflux pump deficient)) was 4 µM (≈ 2.07 µg/mL) and the MIC (Salmonella Typhimurium [8]; Salmonella Typhimurium ATCC 700720, PMBN (+) 4 μg/mL, read-out: MIC) was 64 µM (≈ 33.1 µg/mL). The MIC (Salmonella Typhimurium [8]; [13]) was > 128 µM, the MIC (Salmonella Typhimurium [9]; Salmonella Typhimurium ATCC 700720, colistin (+) […], read-out: MIC) was 64 µM (≈ 33.1 µg/mL) and the MIC (Salmonella Typhimurium [9]; [13]) was > 128 µM. The MIC (Pseudomonas aeruginosa [10]; Pseudomonas aeruginosa ATCC 9721, PMBN (+) 4 μg/mL, read-out: MIC) was 4 µM (≈ 2.07 µg/mL) and the MIC (Pseudomonas aeruginosa [10]; Pseudomonas aeruginosa, ATCC9721) was > 128 µM.
CO[C@H]1/C=C/O[C@@]2(C)Oc3c(C)c(O)c4c(O)c(c(/C=N/N5CCN(C)CC5)c(O)c4c3C2=O)NC(=O)/C(C)=C\C=C\[C@H](C)[C@H](O)[C@@H](C)[C@@H](O)[C@@H](C)[C@H](OC(C)=O)[C@@H]1C [Rifampicin, rifampicin, reference compound] was tested, and the MBC (Mycobacterium smegmatis; read-out: MBC) was > 64 µM and the MIC (Mycobacterium smegmatis; read-out: MIC) was 32 µM (≈ 26.3 µg/mL).
